Laboratory results taken from publication PMC13397332 (Biochimica et biophysica acta. Proteins and proteomics, 2025).

Molecular target: T1, OrnR (STM OrnR, ornithine racemase) (Salmonella enterica, UniProt Q8ZNC6)
T1 sequence (Q8ZNC6 1-367): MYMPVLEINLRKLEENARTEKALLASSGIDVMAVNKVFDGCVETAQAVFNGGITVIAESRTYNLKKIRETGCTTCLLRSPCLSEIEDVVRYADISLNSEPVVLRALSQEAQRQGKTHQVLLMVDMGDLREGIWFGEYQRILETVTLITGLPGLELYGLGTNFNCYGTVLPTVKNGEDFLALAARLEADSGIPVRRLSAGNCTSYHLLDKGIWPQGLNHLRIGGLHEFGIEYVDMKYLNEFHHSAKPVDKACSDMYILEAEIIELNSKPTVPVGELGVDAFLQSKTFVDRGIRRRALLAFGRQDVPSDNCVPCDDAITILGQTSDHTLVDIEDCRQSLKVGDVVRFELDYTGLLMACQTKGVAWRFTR
Settings: read-out: S0.5; D to L direction, pH 9.2, 37 °C, 0.8 mM PLP; sigmoid, Hill fit

Km: 12.8 ± 2.7 mM
SMILES: NCCC[C@@H](N)C(=O)O [D-ornithine]
